According to US12384769B2, “Heteroaryl-substituted aminoalkyl azole compounds as pesticides” (Elanco Animal Health GmbH, priority 2019, dated 2025):

Legend:
Format in all cases: in vivo
[1] = system: Rhipicephalus microplus (strain Parkhurst, resistant against synthetic pyrethroids); test: Rhipicephalus microplus in-vitro contact test, larval cattle tick (BOOPMI Contact); details: 5 μg/cm^2 (=500 g/ha), after 48 hours, read-out: activity (efficacy, larvae dead or moribund)
Method in brief: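 Glass tubes coated with compound in acetone (900 ppm giving 5 μg/cm²), dried, then loaded with 20-50 pyrethroid-resistant Parkhurst larvae and held at 27 °C, 85% RH. After 48 h negative geotaxis is scored; efficacy in % dead or moribund larvae.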

Meloidogyne incognita = Meloidogyne incognita test; details: 20 ppm, after 14 days
Experimental: Meloidogyne incognita—Test
Solvent: 125.0 parts by weight of acetone
To produce a suitable preparation of active compound, 1 part by weight of active compound is mixed with the stated amount of solvent, and the concentrate is diluted with water to the desired concentration.
Vessels are filled with sand, a solution of the active ingredient, a suspension containing eggs and larvae of the southern root-knot nematode (Meloidogyne incognita) and salad seeds. The salad seeds germinate, and the seedlings grow. Galls develop in the roots.
After 14 days the nematicidal activity is determined based on the percentage of gall formation. 100% means no galls were found and 0% means the number of galls found on the roots of the treated plants was equal to that in untreated control plants.

Spodoptera frugiperda = Spodoptera frugiperda spray test; details: in Zea mays, 168 h, read-out: activity (mortality)
Method in brief: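 Compound in acetone/DMF, diluted in water with 1000 ppm alkylarylpolyglycol ether emulsifier, sprayed on maize leaf sections. Dried leaves infested with fall armyworm larvae; % mortality after 7 days (100% = all killed, 0% = none).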

Diabrotica balteata = Diabrotica balteata spray test; details: 168 h, wheat seeds, after 7 days, read-out: activity (efficacy, seedlings grown); for pest or weed control at 160 µg/disc, 500 g/ha: 500 g/ha (=160 μg/well)
Method in brief: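 Germinated wheat seedlings (5 per well, on agar) sprayed with compound in acetone/DMF with emulsifier-containing water, then infested with 10–20 Diabrotica balteata larvae. Efficacy (%) scored after 7 days from seedling growth: 100% = growth as untreated uninfested control, 0% = no seedlings grown.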

[2] = system: Anopheles funestus strain FUMOZ-R; test: Anopheles funestus test (ANPHFU surface treatment & contact assay); details: 30 minutes exposure, 24 hours after contact, read-out: efficacy (mortality); for mortality at 20 mg/m2: surface concentration 20 mg/m^2, glazed tile
Experimental: Anopheles funestus Test (ANPHFU Surface Treatment & Contact Assay)
(§1) Solvent: Aceton+2000 ppm rapeseed oil methyl ester (RME)
In order to produce a sufficient, active ingredient containing solution it is necessary to solve the test compound in the solvent-mix (acetone at 2 mg/mL/RME 2000 ppm). This solution is pipetted onto a glazed tile and after evaporation of the acetone, adult mosquitoes of the species Anopheles funestus strain FUMOZ-R (Hunt et al., Med. Vet. Entomol. 2005 September; 19(3): 271-275) are placed onto the dried surface. The exposure time is 30 minutes.
(§2) Mortality in percent (%) is determined 24 hours after contact of the insects to the treated surface. 100% mortality means that all tested insects are dead, whereas 0% means that no insect died.

[3] = system: Musca domestica strain WHO-N; test: Musca domestica test (MUSCDO surface treatment & contact assay); details: 30 minutes exposure, 24 hours after contact, read-out: efficacy (mortality)
Experimental: Musca domestica Test (MUSCDO Surface Treatment & Contact Assay)
as §1
In order to produce a sufficient, active ingredient containing solution it is necessary to solve the test compound in the solvent-mix (acetone at 2 mg/mL/RME 2000 ppm). This solution is pipetted onto a glazed tile and after evaporation of the acetone, adult flies of the species Musca domestica strain WHO—N are placed onto the dried surface. The exposure time is 30 minutes.
as §2

Nezara viridula = Nezara viridula spray test; details: 96 h, 500 g/ha, barley plants, after 4 days
Experimental: Nezara viridula—Spray Test
Solvent: 78.0 parts by weight of acetone • • 1.5 parts by weight of dimethylformamide
(§3) Emulsifier: alkylarylpolyglycol ether
To produce a suitable preparation of active compound, 1 part by weight of active compound is mixed with the stated amount of solvent, and the concentrate is diluted with water, containing an emulsifier concentration of 1000 ppm, to the desired concentration. Further test concentrations are prepared by dilution with emulsifier containing water.
Barley plants (Hordeum vulgare) are sprayed with a test solution containing the desired concentration of the active ingredient and are infested with larvae of the southern green stink bug (Nezara viridula).
After 4 days, mortality in % is determined. 100% means all the stink bugs have been killed; 0% means none of the stink bugs have been killed.

Boophilus microplus = Boophilus microplus injection test (BOOPMI Injection); details: Rhipicephalus microplus, 168 h, injection into adult engorged female ticks, egg deposition after 7 days, read-out: activity (efficacy, infertile eggs); for pest or weed control at 0.004 mg: 4 μg/animal; for pest or weed control at 0.02 mg: 20 μg/animal
Method in brief: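 Adult engorged female ticks (5 per group) injected into the abdomen with 1 μL compound in DMSO, then held in a climate chamber. Fertile egg deposition scored after 7 days, with unclear eggs kept until hatching (~42 days). Efficacy 100% = all eggs infertile, 0% = all fertile.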

Ctenocephalides felis [4] = test: Ctenocephalides felis in-vitro contact test, adult cat flea; details: 5 μg/cm^2 (=500 g/ha), after 48 hours, read-out: activity (efficacy, fleas dead or moribund)
Method in brief: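 Acetone solutions coated onto inner walls of glass tubes; 900 ppm gives 5 μg/cm^2. After drying, 5-10 adult Ctenocephalides felis per tube held 48 h at room temperature. Fleas then placed on 45-50° C. plate for up to 5 min; those unable to climb away scored dead or moribund, efficacy as % dead/moribund.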

Myzus persicae [5] = test: Myzus persicae oral test; details: 120 h, after 5 days
Experimental: Solvent: 100 parts by weight acetone
Afterwards the plates are sealed with parafilm through which a mixed population of the green peach aphid (Myzus persicae) can suck on the compound preparation.
(§4) After 5 days mortality in % is determined. 100% means all aphids have been killed and 0% means none of the aphids have been killed.

[6] = system: Aedes aegypti strain MONHEIM; test: Aedes aegypti test (AEDSAE surface treatment & contact assay); details: 30 minutes exposure, 24 hours after contact, read-out: efficacy (mortality); for mortality at 20 mg/m2: surface concentration 20 mg/m^2, glazed tile
Experimental: Aedes aegypti Test (AEDSAE Surface Treatment & Contact Assay)
as §1
In order to produce a sufficient, active ingredient containing solution it is necessary to solve the test compound in the solvent-mix (acetone at 2 mg/mL/RME 2000 ppm). This solution is pipetted onto a glazed tile and after evaporation of the acetone, adult mosquitoes of the species Aedes aegypti strain MONHEIM are placed onto the dried surface. The exposure time is 30 minutes.
as §2

Rhipicephalus sanguineus = Rhipicephalus sanguineus in-vitro contact test, adult brown dog ticks (RHIPSA Contact); details: 5 μg/cm^2 (=500 g/ha), after 48 hours, read-out: activity (efficacy, ticks dead or moribund)
Method in brief: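 Acetone solution coated onto glass tube walls; 900 ppm gives 5 μg/cm^2. After drying, 5-10 adult ticks per tube kept at room temperature for 48 h, then placed on a 45-50° C heating plate up to 5 min; ticks unable to climb away counted dead or moribund, efficacy as % affected.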

Tetranychus urticae = Tetranychus urticae spray test OP-resistant; details: foliar, 144 h, 500 g/ha, French bean leaf disks, after 6 days
Experimental: Tetranychus urticae—Spray Test OP-Resistant
(§5) Solvent: 78.0 parts by weight acetone • 1.5 parts by weight dimethylformamide
as §3
(§6) To produce a suitable preparation of active compound, 1 part by weight of active compound is mixed with the stated amount of solvents and is diluted with water, containing an emulsifier concentration of 1000 ppm, to the desired concentration. Further test concentrations are prepared by dilution with emulsifier containing water.
French bean (Phaseolus vulgaris) leaf disks infected with all instars of the two spotted spidermite (Tetranychus urticae) are sprayed with a preparation of the active ingredient of the desired concentration.
After 6 days mortality in % is determined. 100% means all spider mites have been killed and 0% means none of the spider mites have been killed.

Ctenocephalides felis [7] = test: Ctenocephalides felis oral test (CTECFE); details: 48 h, 100 ppm in cattle blood, after 2 days
Method in brief: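 About 20 adult unfed fleas fed through parafilm on cattle blood held at 37° C and dosed with compound from a DMSO concentrate; flea chamber at room temperature. Percent mortality scored after 2 days.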

[8] = system: Culex quinquefasciatus strain P00; test: Culex quinquefasciatus test (CULXFA surface treatment & contact assay); details: surface concentration 20 mg/m^2, glazed tile, 30 minutes exposure, 24 hours after contact, read-out: efficacy (mortality)
Experimental: Culex quinquefasciatus Test (CULXFA Surface Treatment & Contact Assay)
as §1
In order to produce a sufficient, active ingredient containing solution it is necessary to solve the test compound in the solvent-mix (acetone at 2 mg/mL/RME 2 000 ppm). This solution is pipetted onto a glazed tile and after evaporation of the acetone, adult mosquitoes of the species Culex quinquefasciatus strain P00 are placed onto the dried surface. The exposure time is 30 minutes.
as §2

Myzus persicae [9] = test: Myzus persicae spray test; details: foliar, 120 h, 500 g/ha, Chinese cabbage leaf disks, after 5 days
Experimental: Myzus persicae—Spray Test
as §5, §3, §6
Chinese cabbage (Brassica pekinensis) leaf disks infected with all instars of the green peach aphid (Myzus persicae), are sprayed with a preparation of the active ingredient of the desired concentration.
as §4

[10] = surface concentration 4 mg/m^2, glazed tile

Row | SMILES | pest or weed control at 5 µg/cm2 [1] | activity (nematicidal activity, gall formation) (Meloidogyne incognita) | mortality at 500 g/ha (Spodoptera frugiperda) | pest or weed control at 160 µg/disc, 500 g/ha (Diabrotica balteata) | pest or weed control at 0.004 mg (Boophilus microplus) | pest or weed control at 0.02 mg (Boophilus microplus) | other results
1 | C[C@H](Nc1nc2cc(Cl)cc(C(F)(F)F)c2o1)c1ncnn1-c1ccc(C#N)cn1 [Example I-088, 6-{5-[(1S)-1-{[5-Chlor-7-(trifluormethyl)-1,3-benzoxazol-2-yl]amino}ethyl]-1H-1,2,4-triazol-1-yl}nicotinonitril] | 100% | 90% | 83% | 100% |  |  | 
2 | C[C@H](Nc1nc2cc(C(F)(F)F)c(Cl)cc2o1)c1ncnn1-c1ccc(C#N)cn1 [Example I-017] | 100% |  | 100% | 100% | 100% | 100% | mortality at 4 mg/m2 [2, 10]: 85 to 100%; mortality at 20 mg/m2 [2]: 90 to 100%; mortality at 4 mg/m2 [3, 10]: 90 to 100%; mortality at 20 mg/m2 ([3]; surface concentration 20 mg/m^2, glazed tile): 90 to 100%; mortality at 500 g/ha (Nezara viridula): 100%; mortality at 100 g/ha (Spodoptera frugiperda): 100%; pest or weed control at 100 g/ha (Diabrotica balteata): 100%; pest or weed control at 5 µg/cm2, 5 µg/cm2 (Ctenocephalides felis [4]): 100%; mortality at 4 ppm (Myzus persicae [5]): 90%; mortality at 4 mg/m2 [6, 10]: 85 to 100%; mortality at 20 mg/m2 [6]: 90 to 100%
3 | C[C@H](Nc1nc2cc(C3CC3)cc(Cl)c2o1)c1ncnn1-c1ncccc1F [Example I-067, 7-Chlor-5-cyclopropyl-N-{(1S)-1-[1-(3-fluorpyridin-2-yl)-1H-1,2,4-triazol-5-yl]ethyl}-1,3-benzoxazol-2-amin] |  |  |  | 80% | 100% | 100% | pest or weed control at 5 µg/cm2, 5 µg/cm2 (Rhipicephalus sanguineus): 80%; mortality at 500 g/ha (Tetranychus urticae): 90%; mortality at 100 ppm (Ctenocephalides felis [7]): 80%
4 | C[C@H](Nc1nc2cc(C(F)(F)F)cc(Cl)c2o1)c1ncnn1-c1ccc(Cl)nn1 [Example I-046, 7-Chlor-N-{(1S)-1-[1-(6-chlorpyridazin-3-yl)-1H-1,2,4-triazol-5-yl]ethyl}-5-(trifluormethyl)-1,3-benzoxazol-2-amin] | 80% | 90% |  |  |  |  | 
5 | C[C@H](Nc1nc2cc(C(F)(F)F)cc(C(F)(F)F)c2o1)c1ncnn1-c1ncccn1 [Example I-005] | 100% |  | 100% | 100% | 100% | 100% | mortality at 20 mg/m2 [2]: 90 to 100%; mortality at 100 g/ha (Spodoptera frugiperda): 100%; mortality at 100 ppm (Ctenocephalides felis [7]): 100%; pest or weed control at 5 µg/cm2, 5 µg/cm2 (Ctenocephalides felis [4]): 100%; mortality at 4 ppm (Myzus persicae [5]): 90%; mortality at 20 mg/m2 [8]: 90 to 100%; mortality at 20 mg/m2 [6]: 90 to 100%
6 | Cc1nc([C@H](C)Nc2nc3cc(Cl)cc(C(F)(F)F)c3o2)n(-c2ccc(C#N)cn2)n1 [Example I-091, 6-{5-[(1S)-1-{[5-Chlor-7-(trifluormethyl)-1,3-benzoxazol-2-yl]amino}ethyl]-3-methyl-1H-1,2,4-triazol-1-yl)nicotinonitril] | 90% | 90% |  |  |  | 100% | mortality at 500 g/ha (Myzus persicae [9]): 90%
7 | C[C@H](Nc1nc2cc(Cl)cc(C(F)(F)F)c2o1)c1ncnn1-c1ccc(C(F)(F)F)cn1 [Example I-087, 5-Chlor-7-(trifluormethyl)-N-[(1S)-1-{1-[5-(trifluormethyl)pyridin-2-yl]-1H-1,2,4-triazol-5-yl}ethyl]-1,3-benzoxazol-2-amin] | 100% | 90% |  |  |  |  | 
8 | C[C@H](Nc1nc2cc(Cl)c(Cl)cc2o1)c1ncnn1-c1ncccn1 [Example I-016] | 100% |  | 100% | 100% |  | 100% | mortality at 500 g/ha (Tetranychus urticae): 90%; pest or weed control at 100 g/ha (Diabrotica balteata): 100%
